Assay results from the NIST ThermoML archive (doi:10.1021/acs.jced.6b00606).
± gives the expanded uncertainty stated by the source.

How the values were obtained:
[1] = xn = mol fraction of the nth substance listed; details: 100 kPa, Liquid; for speed of sound: Frequency=3 MHz, Sing-around technique in a fixed-path interferometer; for mass density: Vibrating tube method
[2] = excess molar enthalpy (molar enthalpy of mixing); xn = mol fraction of the nth substance listed; details: 308.15 K, 100 kPa, Liquid, Calvet calorimetry

O=C1CCCCCC1 [cycloheptanone] + C1COCCO1
[1]
Details	mass density, 293.15 K [kg/m3]	mass density, 298.15 K [kg/m3]	mass density, 303.15 K [kg/m3]	mass density, 308.15 K [kg/m3]	speed of sound, 293.15 K [m/s]	speed of sound, 298.15 K [m/s]	speed of sound, 303.15 K [m/s]	speed of sound, 308.15 K [m/s]
x2 = 0.0954	957.02 ± 1	952.54 ± 1	948.07 ± 1	943.61 ± 1	1466.3 ± 1.6	1444.4 ± 1.6	1422.1 ± 1.6	1399.7 ± 1.6
x2 = 0.1589	960.61 ± 1	956.03 ± 1	951.46 ± 1	946.89 ± 1	1459.2 ± 1.6	1437.4 ± 1.6	1415.3 ± 1.6	1393 ± 1.6
x2 = 0.2184	964.09 ± 1	959.46 ± 1	954.81 ± 1	950.18 ± 1	1452.6 ± 1.6	1430.9 ± 1.6	1408.9 ± 1.6	1386.7 ± 1.6
x2 = 0.2555	966.35 ± 1	961.68 ± 1	956.99 ± 1	952.32 ± 1	1448.6 ± 1.6	1426.9 ± 1.6	1404.9 ± 1.6	1382.8 ± 1.6
x2 = 0.3019	969.25 ± 1	964.56 ± 1	959.82 ± 1	955.1 ± 1	1443.6 ± 1.6	1421.9 ± 1.6	1400 ± 1.6	1377.9 ± 1.6
x2 = 0.3487	972.3 ± 1	967.57 ± 1	962.78 ± 1	958.02 ± 1	1438.6 ± 1.6	1416.9 ± 1.6	1395.1 ± 1.6	1373 ± 1.6
x2 = 0.3814	974.5 ± 1	969.75 ± 1	964.92 ± 1	960.13 ± 1	1435.1 ± 1.6	1413.4 ± 1.6	1391.6 ± 1.6	1369.6 ± 1.6
x2 = 0.4324	978.07 ± 1	973.27 ± 1	968.38 ± 1	963.54 ± 1	1429.7 ± 1.6	1408 ± 1.6	1386.3 ± 1.6	1364.3 ± 1.6
x2 = 0.4879	982.15 ± 1	977.29 ± 1	972.33 ± 1	967.42 ± 1	1423.8 ± 1.6	1402.2 ± 1.6	1380.5 ± 1.6	1358.5 ± 1.6
x2 = 0.5219	984.76 ± 1	979.85 ± 1	974.85 ± 1	969.89 ± 1	1420.3 ± 1.6	1398.7 ± 1.6	1377 ± 1.5	1355 ± 1.5
x2 = 0.5723	988.81 ± 1	983.82 ± 1	978.74 ± 1	973.7 ± 1	1415 ± 1.5	1393.4 ± 1.5	1371.8 ± 1.5	1349.9 ± 1.5
x2 = 0.6149	992.39 ± 1	987.32 ± 1	982.17 ± 1	977.06 ± 1	1410.5 ± 1.5	1388.9 ± 1.5	1367.4 ± 1.5	1345.5 ± 1.5
x2 = 0.6687	997.15 ± 1	991.96 ± 1	986.73 ± 1	981.52 ± 1	1404.8 ± 1.5	1383.3 ± 1.5	1361.7 ± 1.5	1339.9 ± 1.5
x2 = 0.7104	1001 ± 1	995.75 ± 1	990.44 ± 1	985.15 ± 1	1400.4 ± 1.5	1378.9 ± 1.5	1357.4 ± 1.5	1335.6 ± 1.5
x2 = 0.7489	1004.7 ± 1	999.41 ± 1	994.03 ± 1	988.66 ± 1	1396.3 ± 1.5	1374.7 ± 1.5	1353.3 ± 1.5	1331.5 ± 1.5
x2 = 0.7919	1009.2 ± 1	1003.7 ± 1	998.23 ± 1	992.77 ± 1	1391.6 ± 1.5	1370.1 ± 1.5	1348.6 ± 1.5	1326.9 ± 1.5
x2 = 0.8475	1015.1 ± 1	1009.5 ± 1	1004 ± 1	998.45 ± 1	1385.4 ± 1.5	1363.9 ± 1.5	1342.5 ± 1.5	1320.7 ± 1.5
x2 = 0.9018	1021.3 ± 1	1015.6 ± 1	1010.1 ± 1	1004.4 ± 1	1379.3 ± 1.5	1357.8 ± 1.5	1336.3 ± 1.5	1314.5 ± 1.5

[2]
Details	excess molar enthalpy [kcal/mol]
x2 = 0.0726	0.00727 ± 0.000263
x2 = 0.1258	0.0119 ± 0.000359
x2 = 0.1769	0.0154 ± 0.000406
x2 = 0.2252	0.0187 ± 0.000478
x2 = 0.2786	0.0213 ± 0.000526
x2 = 0.3286	0.0234 ± 0.000574
x2 = 0.3746	0.0247 ± 0.000598
x2 = 0.4282	0.0255 ± 0.000621
x2 = 0.4712	0.0258 ± 0.000621
x2 = 0.5232	0.0254 ± 0.000621
x2 = 0.5725	0.0247 ± 0.000598
x2 = 0.6235	0.0233 ± 0.000574
x2 = 0.6762	0.0212 ± 0.000526
x2 = 0.7256	0.0191 ± 0.000478
x2 = 0.7716	0.0166 ± 0.00043
x2 = 0.8125	0.0141 ± 0.000382
x2 = 0.8682	0.0101 ± 0.000311
x2 = 0.9129	0.007 ± 0.000263

O=C1CCCCC1 [cyclohexanone] + C1CCOCC1
[1]
Details	mass density, 293.15 K [kg/m3]	mass density, 298.15 K [kg/m3]	mass density, 303.15 K [kg/m3]	mass density, 308.15 K [kg/m3]	speed of sound, 293.15 K [m/s]	speed of sound, 298.15 K [m/s]	speed of sound, 303.15 K [m/s]	speed of sound, 308.15 K [m/s]
x2 = 0.1175	941.72 ± 1	937.26 ± 1	932.48 ± 1	927.65 ± 1	1411.4 ± 1.3	1394.5 ± 1.3	1373.6 ± 1.3	1353.2 ± 1.3
x2 = 0.1586	939.66 ± 1	935.2 ± 1	930.42 ± 1	925.6 ± 1	1404.6 ± 1.3	1387.3 ± 1.3	1366.3 ± 1.3	1345.6 ± 1.3
x2 = 0.1952	937.78 ± 1	933.32 ± 1	928.55 ± 1	923.74 ± 1	1398.7 ± 1.3	1381 ± 1.3	1359.7 ± 1.3	1339.1 ± 1.3
x2 = 0.2471	935.05 ± 1	930.59 ± 1	925.82 ± 1	921.01 ± 1	1390.5 ± 1.3	1372.1 ± 1.3	1350.7 ± 1.3	1329.8 ± 1.3
x2 = 0.2843	933.05 ± 1	928.59 ± 1	923.82 ± 1	919.01 ± 1	1384.6 ± 1.3	1365.8 ± 1.3	1344.4 ± 1.3	1323.4 ± 1.3
x2 = 0.3396	930 ± 1	925.53 ± 1	920.76 ± 1	915.96 ± 1	1376.1 ± 1.3	1356.7 ± 1.3	1335.2 ± 1.3	1314 ± 1.3
x2 = 0.3784	927.8 ± 1	923.32 ± 1	918.56 ± 1	913.76 ± 1	1370.3 ± 1.3	1350.6 ± 1.3	1328.9 ± 1.3	1307.6 ± 1.3
x2 = 0.4178	925.53 ± 1	921.03 ± 1	916.26 ± 1	911.46 ± 1	1364.5 ± 1.3	1344.5 ± 1.3	1322.6 ± 1.3	1301.2 ± 1.3
x2 = 0.462	922.91 ± 1	918.41 ± 1	913.62 ± 1	908.82 ± 1	1358.2 ± 1.3	1337.8 ± 1.3	1315.8 ± 1.3	1294.2 ± 1.3
x2 = 0.5009	920.56 ± 1	916.03 ± 1	911.24 ± 1	906.44 ± 1	1352.6 ± 1.3	1332.1 ± 1.3	1309.9 ± 1.3	1288.3 ± 1.3
x2 = 0.5486	917.59 ± 1	913.03 ± 1	908.24 ± 1	903.43 ± 1	1346.1 ± 1.3	1325.3 ± 1.3	1302.9 ± 1.3	1281.1 ± 1.3
x2 = 0.5814	915.51 ± 1	910.91 ± 1	906.13 ± 1	901.31 ± 1	1341.7 ± 1.4	1320.7 ± 1.3	1298.2 ± 1.3	1276.3 ± 1.3
x2 = 0.6379	911.8 ± 1	907.17 ± 1	902.35 ± 1	897.53 ± 1	1334.3 ± 1.4	1313.2 ± 1.3	1290.3 ± 1.3	1268.3 ± 1.3
x2 = 0.6899	908.28 ± 1	903.58 ± 1	898.75 ± 1	893.91 ± 1	1327.7 ± 1.4	1306.4 ± 1.4	1283.4 ± 1.3	1261.3 ± 1.3
x2 = 0.7389	904.83 ± 1	900.08 ± 1	895.23 ± 1	890.37 ± 1	1321.7 ± 1.4	1299.7 ± 1.4	1277 ± 1.3	1254.8 ± 1.3
x2 = 0.7804	901.82 ± 1	897.02 ± 1	892.14 ± 1	887.26 ± 1	1316.8 ± 1.4	1294.6 ± 1.4	1271.8 ± 1.3	1249.6 ± 1.3
x2 = 0.8345	897.76 ± 1	892.89 ± 1	887.96 ± 1	883.04 ± 1	1310.6 ± 1.4	1288.1 ± 1.4	1265.3 ± 1.4	1242.9 ± 1.3
x2 = 0.8929	893.19 ± 1	888.23 ± 1	883.23 ± 1	878.25 ± 1	1304.1 ± 1.4	1281.4 ± 1.4	1258.5 ± 1.4	1236.1 ± 1.3

[2]
Details	excess molar enthalpy [kcal/mol]
x2 = 0.0989	0.0098 ± 0.000311
x2 = 0.1475	0.014 ± 0.000382
x2 = 0.1926	0.017 ± 0.000454
x2 = 0.2415	0.0206 ± 0.000526
x2 = 0.2953	0.0231 ± 0.000574
x2 = 0.3416	0.0253 ± 0.000621
x2 = 0.3952	0.0268 ± 0.000645
x2 = 0.4426	0.0274 ± 0.000669
x2 = 0.4956	0.0276 ± 0.000669
x2 = 0.5425	0.0271 ± 0.000645
x2 = 0.5982	0.0257 ± 0.000621
x2 = 0.641	0.0244 ± 0.000598
x2 = 0.6825	0.0227 ± 0.00055
x2 = 0.7333	0.02 ± 0.000502
x2 = 0.7865	0.0167 ± 0.00043
x2 = 0.8359	0.0132 ± 0.000382
x2 = 0.8875	0.0093 ± 0.000311
x2 = 0.9299	0.00576 ± 0.000239
